{
  "source": "patent US11572590B2",
  "about": "“Methods for evaluating tumor cell spheroids using 3D microfluidic cell culture device” (Dana-Farber Cancer Institute, Inc., priority 2017, dated 2023)",
  "key": {"[1]": {"test_system": "Jurkat T cell leukemia cells", "assay": "IL-2 secretion by Jurkat cells on anti-CD3 coated plates", "format": "cell-based", "conditions": "dose titration, 24 hours", "method": "Freshly isolated human CD4+ and CD8+ T cells were obtained from AllCells (Alameda, Calif., USA). Cells were spun down and resuspended in serum free Xvivo15 media (Lonza Walkersville, Inc., Chicago, Ill., USA) supplemented with 5 ng/mL […] and incubated overnight at 37° C. Cells were plated on anti-CD3 coated plates (5 μg/mL OKT3, eBioscience, Dallas, Tex., USA, overnight) with 2 μg/mL anti-CD28 (eBioscience, Dallas, Tex., USA). Cells are treated in replicate plates with a dose-titration of Compound 1 for 24 hours for IL-2 and 96 hours for IFNγ. IL-2 and IFNγ in the supernatant were measured using single- or multi-plex immunoassay (Mesoscale Discovery, Rockville, Md., USA). Jurkat T cell leukemia cells (clone E61 obtained from ATCC) plated on anti-CD3 coated plates were treated with a dose titration of Compound 1 for 24 hours. IL-2 in the supernatant was measured as described above."}, "[2]": {"test_system": "CT26 allograft", "assay": "CT26 allograft, Compound 1 and anti-PD-L1 combination in vivo", "parameters": "species or system mouse", "conditions": "Compound 1 40 mg/kg oral gavage daily + anti-PD-L1 10 mg/kg every 5 days", "method": "(§1) Combination studies were performed by vivoPharm (Hummelstown, Pa., USA). All procedures used in the performance of these studies were carried out in accordance with vivoPharm's Standard Operating Procedures, with particular reference to US_SOPvP_EF0314 “General Procedures for Efficacy Studies.” CT26 colon carcinoma cells (1×10^6 cells/mouse in 100 μL, passage 2-3) were re-suspended in serum-free DMEM and implanted in the upper right flank of 11-12 week old female Balb/c mice (Charles River Laboratories). Mice were randomized into four groups of 10 using a matched pair distribution method based on tumor size for CT26. Treatment was initiated 12 days post-inoculation with mean tumor volume at start of dosing of 125.85 mm^3. Vehicle or Compound 1 (40 mg/kg) was administered by oral gavage daily for 26 days and isotype control or a reverse chimera anti-PD-L1 cloned from literature reports (e.g., Deng, R. et al. MAbs (2016), the content of which is incorporated herein by reference in entirety) and placed into a mouse IgG1 framework (10 mg/kg) was administered every 5 days for a total of six doses. Investigators were not blinded to treatment groups. […] Mice were sacrificed on Day 13 and lung metastases were quantified (small ≤1 mm, medium >1 mm and ≤3 mm, large >3 mm). No large lung metastases were detected."}, "[3]": {"test_system": "CT26 and EMT6 cells", "assay": "Re-implantation of CT26 and EMT6 cells into mice with exceptional responses (immunologic memory)", "format": "in vivo, mouse", "conditions": "previous αPD-L1 + Compound 1", "method": "as §1"}},
  "data": [
    {"smiles": "N#Cc1cc(-c2ncnc(Nc3ccc(N4CCN(C5COC5)CC4)cc3)n2)ccc1OC1CCOCC1", "note": "[Compound 1, 5-(4-((4-(4-(oxetan-3-yl)piperazin-1-yl)phenyl)amino)-1,3,5-triazin-2-yl)-2-((tetrahydro-2H-pyran-4-yl)oxy)benzonitrile]", "values": [
      {"measurement": "secretion of IL-2 from Jurkat cells", "setting": "[1]", "result": "enhanced secretion"},
      {"measurement": "survival, CT26 allograft, combination vs Cmpd1 or anti-PD-L1 alone", "setting": "[2]", "result": "longer survival"},
      {"measurement": "tumour control, CT26 allograft, combination vs Cmpd1 or anti-PD-L1 alone", "setting": "[2]", "result": "greater tumour control"},
      {"measurement": "growth of reimplanted CT26 in mice with exceptional responses to combination therapy", "setting": "[3]", "result": "no growth"}
    ]}
  ]
}
